Here are results for four molecules from patent US20090118242A1 (AlgoRx, priority 2002, published 2009).

Where “and” joins values, the source holds several entries; their conditions need not be identical. Identical values can stand only once.

For series [1], the system named is animal models of inflammatory (formalin test) pain. Particulars: administered locally; cited from earlier work.
Another series deals with patients. Particulars: cited from earlier work.
Series [2] has as its system subjects with osteoarthritis of the knee. Description: Osteoarthritis of the Knee Safety Study: safety and tolerability of intra-articular purified capsaicin with local anesthetic. It counts as in vivo, human. The method, then:
The primary objective of the study was to evaluate the safety and tolerability of intra-articular capsaicin, when co-administered with intra-articular local anesthetic, compared to placebo, in subjects with end-stage osteoarthritis of the knee, already scheduled to receive knee replacements.
The study was designed to include 16 evaluation subjects. […] Sixteen subjects completed the study.
Patients were treated randomly and in double-blind fashion in four treatment groups, with each group having a progressively longer interval between the intra-articular administration of study medication and subsequent total knee replacement (2, 4, 7, and 14 days). […] Gross and microscopic pathology analysis was completed for each treatment group before the next treatment group was treated.
(§1) Each subject had 3 study visits: a Screening Day (Day −7 to −1), the Treatment Day (Day 0), and a Post-Treatment Day (scheduled for Day +2, +4, +7, or +14). On the Treatment Day the subject was randomized, pre-treatment evaluation was performed. The patients were brought into the procedure room, and a VAS pain score was taken (0 mm—no pain, 100 mm—extreme pain). Once the patient had marked his or her pain on the card, he/she was prepped for knee cannulation. Once the cannula was placed, the patient received by intra-articular infiltration, 3 mg/kg (maximum dose of 200 mg) of 2% lignocaine into the knee scheduled to be replaced.
(§2) VAS pain scores as well as verbal reports were taken immediately following administration, as well as prior to knee replacement surgery. No subjects discontinued from the study due to adverse events.

Details of series [3]: species or system human. As to conditions: in vivo. The method, then:
The pharmacokinetic parameters of Cmax, Tmax, AUC (0−tlast) and t½ were evaluated.

Series [4] concerns subjects with osteoarthritis of the knee. Description: Osteoarthritis of the Knee Safety Study: VAS pain score at the target knee. It is filed as in vivo, human. The method, then:
as §1, §2
On the Post-Treatment Day, study evaluation was performed followed by the scheduled knee replacement, with intra-operative bone and soft tissue biopsies performed for subsequent examination. […] This therefore left the 3 placebo and 9 active patients from the 4 day, 7 day, and 14 day cohorts.

Another series has as its system rats. As to conditions: systemic, final doses of 25 mg/kg or less; cited from earlier work.
Series [5] deals with subjects undergoing transpositional osteotomy (bunionectomy). Description: Bunionectomy Efficacy Study: VAS pain at operation site and rescue medication. As to conditions: for VAS pain score at operation site (mean +/− SEM): 1000 μg into wound, n = 11. It counts as in vivo, human. The method, then:
The primary efficacy endpoint was the proportion of subjects in each treatment group requiring opioid analgesia in the first 24 hours post-operatively. The proportions were compared amongst treatment groups using the Cochran-Haenszel test. Secondary efficacy end points included: i) proportion of subjects in each treatment group requiring opioid analgesia in the first 36 hour period post-operatively (Similarly, the proportions were compared amongst treatment groups using the Cochran-Haenszel test); ii) proportion of subjects in each treatment group requiring opioid analgesia in the 10 day period post-operatively (Similarly, the proportions were compared amongst treatment groups using the Cochran-Haenszel test); iii) time to first usage of opioid analgesia in each treatment group (a survival analysis approach will be used: the product-limit (Kaplan-Meier) method will be applied to time to first usage of opioid analgesia. The median time to first usage of opioid analgesia will be estimated in both treatment groups. Pairwise comparisons will be performed to test for equality of the survival curves between the 2 treatment groups using both the log-rank and the Wilcoxon test); iv) total usage of analgesia in each treatment group (the total usage of analgesia will be compared by an analysis of variance with treatment and center as independent variables. A pairwise comparison will be performed between the treatment groups); and v) VAS, assessment of pain at the site of operation in each treatment group. (The VAS score at each time point will be compared by an analysis of variance with treatment and center as independent variables. A pairwise comparison will be performed between the treatment groups). […] The efficacy analysis was performed on the data obtained ten days postoperatively. The safety analysis was performed based on the safety data for the entire study, including the 6 week and 12 week follow-up periods. The blind was broken at the time the efficacy analysis was performed. However, the individual treatment assignment was available to the statistical analysis group only. All other personnel involved in the study, including the Investigator, study monitor and proprietary staff, remained blinded until the entire study was completed.
The study was designed to include 40 evaluation subjects. […] Each subject had six (6) study visits: a Screening Day (Day −28 to −1), an Operation Day (Day 0), and four (4) Follow-up visits (scheduled for Days 3, 10 and weeks 6 and 12).
On Operation Day (Day 0) the following was performed: a) Pre-operation: Prior to the initiation of an ankle block, inclusion/exclusion criteria assessment was performed. […] Immediately prior to wound closure, the Investigator slowly dripped the study medication (4 mL) from a syringe into the wound, ensuring even tissue exposure. The wound was then be closed according to normal practices and procedures.
In the 24 hours following administration of study medication, vital signs (supine pulse rate and blood pressure) were recorded at 1, 2, 4 and 24 hours post administration. VAS assessment of pain at the operation site was performed at 1, 4, 8, 12 and 24 hours post administration. In those instances where VAS measurements coincide with blood sampling procedures, the VAS assessment was performed first. […] The quantity of each blood sample was 10 mL. Laboratory safety assessments, e.g., haematology, biochemistry, urinalysis were performed at 24 hours post administration. Adverse events were spontaneously reported by the subject and recorded. Rescue analgesia medication was provided to the subject if required (initially diclofenac 50 mg, repeated at 8-hourly intervals if necessary). When diclofenac was judged by the Investigator to provide inadequate pain relief then the subject was provided with alfentanil 1 mg, repeated at 6 hourly intervals, if necessary.

[6] abbreviates: 10, 100, 300 μg intra-articular.
The mark [7] stands for this setting: 1000 μg prior to wound closure, n=11.

With `CN(C)CCC=C1c2ccccc2CCc2ccccc21` [amitriptyline], in series [1], the local antinociceptive action entry was “produced local antinociceptive actions”.
In the case of `CNCCCN1c2ccccc2CCc2ccccc21` [desipramine], the local antinociceptive action result in series [1] is reported as “produced local antinociceptive actions”.
On to `CN1C(C(=O)Nc2ccccn2)=C(O)c2ccccc2S1(=O)=O` [piroxicam], for which the “patients experiencing gross bleeding and ulceration” value with patients was “up to 4%”.
As for `COc1cc(CNC(=O)CCCC/C=C/C(C)C)ccc1O` [purified capsaicin, N-(4-hydroxy-3-methoxybenzyl)-8-methylnon-trans-6-enamide], the “duration of post-administration (hyper)algesic pain, individual subject” value in series [2] (100 μg dose group) is 9 min. For the same molecule, the “duration of post-administration (hyper)algesic pain, individual subjects” value in series [2] (300 μg dose group) is 17 minutes and 25 minutes (2×) and 42 minutes. Also, in series [2] (setting [6]), the “effects on laboratory safety parameters or vital signs” value is listed as “no treatment related effects on laboratory safety parameters or vital signs”; the “effects on soft tissue, cartilage, or bone upon histopathological examination” value was “no treatment related effects on soft tissue, cartilage, or bone”; the “erythema, edema, or hemorrhage at the site of injection” value is given as “no treatment related signs of erythema, edema, or hemorrhage”; the “leakage of study drug from the joint space” value is “low leakage”. In addition, the systemic side effects result in series [2] (setting [6]) is recorded as “No treatment related systemic side effects”. For the same molecule, the “gross and microscopic pathology” value in series [2] (knee tissue at replacement 2-14 days after dose) is “normal”. In addition, in series [3], the “plasma concentrations in the 10 μg dose group compared with the 100 μg or 300 μg dose groups” value was “clearly lower”. For the same molecule, the “VAS reduction, prior to administration versus day of surgery” value in series [4] (9 active patients of the 4, 7 and 14 day cohorts, 10-300 μg pooled) was 62±14%. Also, the “median decrease from baseline to pre-operative time point in VAS for pain at target knee, versus placebo” value in series [4] (all 3 capsaicin dose groups) is reported as “substantially greater”. In addition, the “treatment related indication of efficacy (VAS)” value in series [4] (any of the dose levels (10 μg, 100 μg, 300 μg)) is “No clear treatment related indication of efficacy”. The “effect on pain threshold” value in the series with rats is given as “did not elevate the pain threshold above normal range”. Further, in series [5] (8 hr), the “VAS pain score at operation site (mean +/− SEM)” value (“VAS pain score … (mean +/− SEM)” below) is recorded as 5.5 +/− 2.3. The “VAS pain score … (mean +/− SEM)” value in series [5] (12 hr) was 8.2 +/− 3.8. In addition, in series [5] (24 hr), the “VAS pain score … (mean +/− SEM)” value was 1.9 +/− 1.0. The “VAS pain score … (mean +/− SEM)” value in series [5] (48 hr) is given as 5.9 +/− 2.5. In series [5] (setting [7]), the “subjects who did not rescue in 72 hours” value is 6 subjects; the “time at which individual subject required rescue” value was 1 h and 4 h and 5 h and 8 h and 12 h.
